Data on 48 compounds can be found in patent EP4563571A1, “PRMT5 INHIBITORS” (Beijing Earthwise Technology Co., Ltd., priority 2022, dated 2024).

As usually defined, the GI50 is the concentration that inhibits growth by half.

One assay has as its system HCT116 cells. The assay is described as follows: Anti-proliferation assay on cells (Cell-Titer Glo, 10 days). It counts as cell-based. The note with it: for Selectivity multiple of HCT116^MTAP WT GI50/ HCT116^MTAP Deletion GI50: ratio of GI50 values. The protocol:
Assay example 1: Method of anti-proliferation assay on cells
HCT116^MTAP Deletion cells were from Pharmaron (China); HCT116 cells were from ATCC; McCoy's 5A medium was purchased from Invitrogen (USA); penicillin-streptomycin and fetal bovine serum were purchased from Gibco (USA); a 384-well plate was purchased from PerkinElmer (USA); and Cell-Titer Glo reagent was purchased from Promega (USA).
Compound dissolution: All the compounds were dissolved in dimethyl sulfoxide (DMSO) and then stored. The compounds were stored at room temperature in a dry condition for 3 months for short term storage or at -20 °C for long term storage.
Cell culture and passaging
The cells were cultured strictly in accordance with ATCC requirements. The cell culture medium (McCoy's 5A medium + 10% fetal bovine serum + 1% penicillin + streptomycin) was transferred to a 15 mL centrifuge tube and centrifuged at 1000 rpm for 5 min. The supernatant was removed. The cells were resuspended with complete culture medium, inoculated into a culture dish at the required density, and cultured in an incubator at 37 °C, 95% humid air, and 5% carbon dioxide. The culture medium was replenished or the cells were passaged every 2-3 days depending on the cell growth condition.
Cell proliferation activity assay
When the confluency of cells in the culture dish reached about 90%, the cells were washed twice with PBS, and then treated with trypsin to become single cells. The cells were counted, and 40µl of the cells was inoculated into each well of a 384-well plate (50 cells/well). The plate was equilibrated at 37 °C and 5% carbon dioxide for 10 to 15 minutes. The compounds were injected into the 384-well plate using Echo550, and positive control and negative control (0.1% DMSO) were set up. Each compound was subjected to a 3-fold dilution, resulting in 10 concentration gradients, in duplicate, and the content of DMSO was 0.1%. The 384-well plate was incubated in a cell culture incubator for 10 days.
Then, 40 µl of cell proliferation assay reagent (CTG) was added to the 384-well plate, and the plate was shaken to mix well. Then, the 384-well plate was incubated at 37 °C and 5% carbon dioxide in the dark for 30 minutes. The data were read using the Envision multifunctional microplate reader. […] According to the different drug concentrations and their corresponding inhibition rates, the GI50 curve was drawn using GraphPad 8.0 software. The data were analyzed, and the final IC50 value was obtained.
In addition, the compounds of the present disclosure also have selectivity for mutant HCT116 cells. […] The selectivity data of representative compounds are shown in Table 2: Table 2 Selectivity data of representative compounds

Assay [1] has as its system HCT116^MTAP Deletion cells. The description is as above. The class given is cell-based. Summed up:
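HCT116^MTAP Deletion cells seeded at 50 cells/well and exposed to 10-point 3-fold compound dilutions in duplicate (0.1% DMSO) for 10 days at 37 °C. Viability read by CellTiter-Glo luminescence; IC50 derived from GI50 curves of concentration versus inhibition.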

The mark [2] stands for this setting: HCT116^MTAP Deletion cells, 10 days incubation, CTG readout, read-out: HCT116^MTAP Deletion GI50.
The mark [3] stands for this setting: 240 h, HCT116^MTAP Deletion cells, 10 days incubation, CTG readout, read-out: HCT116^MTAP Deletion GI50.

Read-outs that look alike come from different tables or passages of the source.

Take `CN(C(=O)C(=O)Nc1cnc(N)c2c1cnn2C)C1COCc2cc(Cl)c(Cl)cc21` (single isomer, unassigned) [Example 163-P1]: the “Selectivity multiple of HCT116^MTAP WT GI50/ HCT116^MTAP Deletion GI50” value (“Selectivity multiple” below) in the assay on HCT116 cells is given as 94. As for `CC1OCC(N(C)C(=O)C(=O)Nc2cnc(N)c3c2cnn3C)c2ccc(C(F)(F)F)cc21` (single isomer, unassigned) [Example 187-P1], in the assay on HCT116 cells, the “Selectivity multiple” value is on record as 78. Same read-out and setting: under `CC1OCC(N(C)C(=O)C(=O)Nc2cnc(N)c3c2cnn3C)c2ccc(C(F)(F)F)cc21` (single isomer, unassigned) [Example 187-P2] stands 59. As to `C[C@H](c1ncccn1)N(Cc1ccc(C(F)(F)F)cn1)C(=O)C(=O)Nc1cnc(N)c2cnn(C)c12` [Example 34], the GI50 is 100 to 1000 nM in assay [1] (setting [2]), at most 100 nM in assay [1] (read-out: GI50 for HCT116^MTAP Deletion) and 1 to 10 µM with HCT116 cells (HCT116 cells). Besides, the “selectivity for mutant HCT116 cells” value with HCT116 cells (HCT116 GI50 versus HCT116^MTAP Deletion GI50, text b891) is given as “more than 300 times”.

On to `CCC(C)N(Cc1ccc(-c2ccn(C)n2)cn1)C(=O)C(=O)Nc1cnc(N)c2c1cnn2C` (stereo not shown) [Example 88], for which, in assay [1] (setting [3]), the GI50 was under 10 nM. Besides, the “Selectivity multiple” value in the assay with HCT116 cells turned out to be 161. In the case of `CN(C(=O)C(=O)Nc1cnc(N)c2c1cnn2C)C1COc2cc(C(F)(F)F)ccc21` (stereo not shown) [Example 89], the GI50 in assay [1] (setting [2]) was under 10 nM. The “Selectivity multiple” value with HCT116 cells was determined as 160. Turning to `CCC(C)N(Cc1ccc(-c2cnn(C)c2)cn1)C(=O)C(=O)Nc1cnc(N)c2c1cnn2C` (stereo not shown) [Example 90], the GI50 in assay [1] (setting [3]) is under 10 nM. Also, the “Selectivity multiple” value with HCT116 cells is given as 119. On to `CN(C(=O)C(=O)Nc1cnc(N)c2c1cnn2C)C1COCc2cc(-c3ccn(C)n3)ccc21` (stereo not shown) [Example 93], for which the GI50 in assay [1] (setting [3]) fell in the range of 10 to 100 nM. In the assay on HCT116 cells, the “Selectivity multiple” value was determined as 244. In the same order, the values of `CN(C(=O)C(=O)Nc1cnc(N)c2c1cnn2C)C1COCc2cc(Br)ccc21` (stereo not shown) [Example 94] are under 10 nM and 144. In the same order, the values of `CN(C(=O)C(=O)Nc1cnc(N)c2c1cnn2C)C1COCc2cc(-c3cccnc3)ccc21` (stereo not shown) [Example 95] are under 10 nM and 224. Take `Cn1ncc2c(NC(=O)C(=O)N(C3CC3)C3COCc4cc(C(F)(F)F)ccc43)cnc(N)c21` (stereo not shown) [Example 98]: the GI50 in assay [1] (setting [3]) was under 10 nM. For the same compound, the “Selectivity multiple” value in the assay on HCT116 cells stood at 106. With `CN(C(=O)C(=O)Nc1cnc(N)c2c1cnn2C)C1COCc2cc(-c3cnn(C)c3)ccc21` (stereo not shown) [Example 99], the GI50 in assay [1] (setting [2]) is under 10 nM. Moreover, in the assay with HCT116 cells, the “Selectivity multiple” value is on record as 285. In the case of `CN(C(=O)C(=O)Nc1cnc(N)c2c1cnn2C)C1COCc2cc(C3=CCOCC3)ccc21` (stereo not shown) [Example 100], in assay [1] (setting [2]), the GI50 was under 10 nM. Moreover, in the assay with HCT116 cells, the “Selectivity multiple” value was determined as 179. Consider `CN(C(=O)C(=O)Nc1cnc(N)c2c1cnn2C)C1COCc2cc(C3CC3)ccc21` (stereo not shown) [Example 104], for which the GI50 in assay [1] (setting [3]) was 10 to 100 nM. In addition, the “Selectivity multiple” value in the assay on HCT116 cells was 144.

Turning to `CN(C(=O)C(=O)Nc1cnc(N)c2c1cnn2C)C1COCc2c1ccc(Cl)c2Cl` (stereo not shown) [Example 168-P1], in the assay on HCT116 cells, the “Selectivity multiple” value worked out at 147.

For `Cc1ncc(-c2ccc3c(c2)COCC3N(C)C(=O)C(=O)Nc2cnc(N)c3c2cnn3C)s1` (stereo not shown) [Example 181-P1], the “Selectivity multiple” value with HCT116 cells was determined as 247. Still for that read-out and setting: then `CN(C(=O)C(=O)Nc1cnc(N)c2c1cnn2C)C1COc2cc(Cl)c(Cl)cc21` (stereo not shown) [Example 186-P1], with 210. On to `CN(C(=O)C(=O)Nc1cnc(N)c2c1cnn2C)C1COc2cc(N3CCOCC3)ccc21` (stereo not shown) [Example 205], for which the GI50 in assay [1] (setting [3]) is 10 to 100 nM. On the same count and under the same terms, under `CCc1ccc2c(c1)OCC2N(C)C(=O)C(=O)Nc1cnc(N)c2c1cnn2C` (stereo not shown) [Example 206] stands under 10 nM; under `Cc1ncc(-c2ccc3c(c2)COCC3N(C)C(=O)C(=O)Nc2cnc(N)c3c2cnn3C)o1` (stereo not shown) [Example 207], under 10 nM; under `CN(C(=O)C(=O)Nc1cnc(N)c2c1cnn2C)C1COc2c1ccc(C(F)(F)F)c2F` (stereo not shown) [Example 208], 10 to 100 nM. On the same count and under the same terms, then `CN(C(=O)C(=O)Nc1cnc(N)c2c1cnn2C)C1COc2cc(C(F)(F)C(F)(F)F)ccc21` (stereo not shown) [Example 210], with under 10 nM.

For the compound `CN(C(=O)C(=O)Nc1cnc(N)c2c1cnn2C)C1COc2cc(-c3cnn(C4CC4)c3)ccc21` (stereo not shown) [Example 211], the GI50 in assay [1] (setting [2]) is under 10 nM. With `CN(C(=O)C(=O)Nc1cnc(N)c2c1cnn2C)C1COc2cc(-c3ccnn3C3CC3)ccc21` (stereo not shown) [Example 212], the GI50 in assay [1] (setting [2]) was under 10 nM.

As for `CN(C(=O)C(=O)Nc1cnc(N)c2c1cnn2C)C1COc2cc(-c3cnn(C(F)(F)F)c3)ccc21` (stereo not shown) [Example 213], the GI50 in assay [1] (setting [2]) was under 10 nM. On to `CN(C(=O)C(=O)Nc1cnc(N)c2c1cnn2C)C1COc2cc(-c3ccccc3F)ccc21` (stereo not shown) [Example 214], for which, in assay [1] (setting [3]), the GI50 is under 10 nM. Same read-out and setting: under `CN(C(=O)C(=O)Nc1cnc(N)c2c1cnn2C)C1COCc2cc(-c3ccccc3F)ccc21` (stereo not shown) [Example 215] stands under 10 nM; under `CN(C(=O)C(=O)Nc1cnc(N)c2c1cnn2C)C1COc2cc(-c3ccccc3)ccc21` (stereo not shown) [Example 216], 10 to 100 nM; under `CN(C(=O)C(=O)Nc1cnc(N)c2c1cnn2C)C1COCc2cc(C(C)(C)C)ccc21` (stereo not shown) [Example 217], under 10 nM. Same read-out and setting: then `CN(C(=O)C(=O)Nc1cnc(N)c2c1cnn2C)C1COCc2cc(C3(C#N)CC3)ccc21` (stereo not shown) [Example 218], with under 10 nM; and `CN(C(=O)C(=O)Nc1cnc(N)c2c1cnn2C)C1COCc2nc(-c3ccccc3)ccc21` (stereo not shown) [Example 219], with under 10 nM; and `CN(C(=O)C(=O)Nc1cnc(N)c2c1cnn2C)C1COCc2nc(-c3ccnn3C3CC3)ccc21` (stereo not shown) [Example 220], with under 10 nM. Still for that read-out and setting: then `Cc1ncc(-c2cc3c(cn2)C(N(C)C(=O)C(=O)Nc2cnc(N)c4c2cnn4C)COC3)s1` (stereo not shown) [Example 222], with 10 to 100 nM; and `CN(C(=O)C(=O)Nc1cnc(N)c2c1cnn2C)C1COCc2nc(-c3ccccc3F)ccc21` (stereo not shown) [Example 225], with under 10 nM; and `CN(C(=O)C(=O)Nc1cnc(N)c2c1cnn2C)C1COCc2cc(-c3ccccc3)ccc21` (stereo not shown) [Example 226], with under 10 nM. As to `CN(C(=O)C(=O)Nc1cnc(N)c2c1cnn2C)C1COCc2cc(S(C)(=O)=O)ccc21` (stereo not shown) [Example 227], in assay [1] (setting [3]), the GI50 lay within 10 to 100 nM. Still for that read-out and setting: then `CN(C(=O)C(=O)Nc1cnc(N)c2c1cnn2C)C1COc2cc(-c3nncn3C3CC3)ccc21` (stereo not shown) [Example 228], with 100 to 1000 nM.

For the compound `Cc1nc(-c2ccc3c(c2)OCC3N(C)C(=O)C(=O)Nc2cnc(N)c3c2cnn3C)no1` (stereo not shown) [Example 229], in assay [1] (setting [3]), the GI50 lay within 10 to 100 nM. Still for that read-out and setting: then `CC(C)c1ccc2c(c1)OCC2N(C)C(=O)C(=O)Nc1cnc(N)c2c1cnn2C` (stereo not shown) [Example 230], with under 10 nM; and `CN(C(=O)C(=O)Nc1cnc(N)c2c1cnn2C)C1COCc2cc(-c3ccnn3C3CC3)ccc21` (stereo not shown) [Example 232], with under 10 nM. For `Cc1ccc2c(c1)OCC2N(C)C(=O)C(=O)Nc1cnc(N)c2c1cnn2C` (stereo not shown) [Example 233], the GI50 in assay [1] (setting [2]) lay within 10 to 100 nM. With `CN(C(=O)C(=O)Nc1cnc(N)c2c1cnn2C)C1COc2ccccc2C1` (stereo not shown) [Example 234], the GI50 in assay [1] (setting [3]) is 100 to 1000 nM. Regarding `CN(C(=O)C(=O)Nc1cnc(N)c2c1cnn2C)C1COc2cc(-c3cnc(C4CC4)s3)ccc21` (stereo not shown) [Example 236], the GI50 in assay [1] (setting [2]) was under 10 nM. As to `CN(C(=O)C(=O)Nc1cnc(N)c2c1cnn2C)C1COCc2cc(C3(C(F)(F)F)CC3)ccc21` (stereo not shown) [Example 237], the GI50 in assay [1] (setting [3]) was under 10 nM. The same measure, in the same setting: under `CN(C(=O)C(=O)Nc1cnc(N)c2c1cnn2C)C1COCc2cc(C(F)(F)C(F)(F)F)ccc21` (stereo not shown) [Example 238] stands under 10 nM. The same measure, in the same setting: then `CN(C(=O)C(=O)Nc1cnc(N)c2c1cnn2C)C1COc2cc(-c3ccc(C4CC4)nc3)ccc21` (stereo not shown) [Example 239], with under 10 nM.

Turning to `CC#Cc1ccc2c(c1)OCC2N(C)C(=O)C(=O)Nc1cnc(N)c2c1cnn2C` (stereo not shown) [Example 240], the GI50 in assay [1] (setting [3]) is 10 to 100 nM. As to `CC1OCC(N(C)C(=O)C(=O)Nc2cnc(N)c3c2cnn3C)c2ccc(C(F)(F)F)cc21` (stereo not shown) [compound 187], the GI50 in assay [1] (setting [2]) is under 10 nM.
